Reference: ChEMBL document CHEMBL1201862, “PubChem BioAssay data set” (2004)
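Dose response: 5 concentrations. Exposure: 48 h. Format: 96-well plates. Endpoint: linear interpolation; highest concentration if not reached. Abbreviation: GI50, concentration required for 50% inhibition of growth.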 Calls of active or inactive are those of the source. Rule as the data show it: active = GI50 up to about 1.1 µM and inactive = higher.

Key:
Test in all cases: NCI anticancer screen, dose series, 48 h
IGROV-1 = system: IGROV-1
K562 = system: K562
HL-60 = system: HL-60
KM12 = system: KM12
SF-268 = system: SF-268
SK-MEL-28 = system: SK-MEL-28
Malme-3M = system: Malme-3M
SF-539 = system: SF-539
HOP-92 = system: HOP-92
UO-31 = system: UO-31
CCRF-CEM = system: CCRF-CEM
SR = system: SR
786-0 = system: 786-0
HCT-15 = system: HCT-15
UACC-62 = system: UACC-62
EKVX = system: EKVX
SW-620 = system: SW-620
BT-549 = system: BT-549
MCF7 = system: MCF7
T47D = system: T47D

## CCOC(=O)C(Cc1c[nH]c2cc([N+](=O)[O-])ccc12)NS(=O)(=O)c1ccc2ccccc2c1 (centres undefined)
IGROV-1
  GI50: 21.4 µM (inactive)
K562
  GI50: 18.1 µM (inactive)
HL-60
  GI50: 22.8 µM (inactive)
KM12
  GI50: 17.1 µM (inactive)
SF-268
  GI50: 20.2 µM (inactive)
SK-MEL-28
  GI50: 18.2 µM (inactive)
Malme-3M
  GI50: > 10 µM (inactive)
SF-539
  GI50: 17.5 µM (inactive)
HOP-92
  GI50: 19.9 µM (inactive)
UO-31
  GI50: 22.8 µM (inactive)
CCRF-CEM
  GI50: 20.1 µM (inactive)
SR
  GI50: 17.5 µM (inactive)
786-0
  GI50: 26.5 µM (inactive)
HCT-15
  GI50: 18.7 µM
UACC-62
  GI50: 16.7 µM (inactive)
EKVX
  GI50: 29.1 µM (inactive)
SW-620
  GI50: 21.2 µM (inactive)

## N/N=C(\Nc1ccccc1)SCc1ccccc1
IGROV-1
  GI50: > 100 µM (inactive)
K562
  GI50: > 100 µM (inactive)
HL-60
  GI50: > 100 µM (inactive)
KM12
  GI50: > 100 µM (inactive)
BT-549
  GI50: > 100 µM (inactive)
SK-MEL-28
  GI50: > 100 µM (inactive)
Malme-3M
  GI50: > 100 µM (inactive)
SF-539
  GI50: > 100 µM (inactive)
HOP-92
  GI50: > 100 µM (inactive)
UO-31
  GI50: > 100 µM (inactive)
CCRF-CEM
  GI50: > 100 µM (inactive)
SR
  GI50: > 100 µM (inactive)
786-0
  GI50: > 100 µM (inactive)
HCT-15
  GI50: > 100 µM
UACC-62
  GI50: > 100 µM (inactive)
MCF7
  GI50: > 100 µM (inactive)
SW-620
  GI50: > 100 µM (inactive)

## CC(C)[C@H](NC(=O)[C@@H](O)[C@H](N)Cc1ccccc1)C(=O)N[C@@H](Cc1ccccc1)C(=O)O
IGROV-1
  GI50: > 100 µM (inactive)
K562
  GI50: > 100 µM (inactive)
HL-60
  GI50: > 100 µM (inactive)
KM12
  GI50: > 100 µM (inactive)
T47D
  GI50: > 100 µM (inactive)
SF-268
  GI50: > 100 µM (inactive)
SK-MEL-28
  GI50: > 100 µM (inactive)
Malme-3M
  GI50: > 100 µM (inactive)
HOP-92
  GI50: > 100 µM (inactive)
UO-31
  GI50: > 100 µM (inactive)
CCRF-CEM
  GI50: > 100 µM (inactive)
SR
  GI50: > 100 µM (inactive)
786-0
  GI50: > 100 µM (inactive)
HCT-15
  GI50: > 100 µM
UACC-62
  GI50: > 100 µM (inactive)
MCF7
  GI50: > 100 µM (inactive)
EKVX
  GI50: > 100 µM (inactive)
SW-620
  GI50: > 100 µM (inactive)

## O=[N+]([O-])c1ccc(C2c3c(O)nc(O)nc3Oc3nc(O)nc(O)c32)cc1
IGROV-1
  GI50: > 100 µM (inactive)
HL-60
  GI50: 33.7 µM (inactive)
KM12
  GI50: > 100 µM (inactive)
BT-549
  GI50: > 100 µM (inactive)
SF-268
  GI50: > 100 µM (inactive)
SK-MEL-28
  GI50: > 100 µM (inactive)
UO-31
  GI50: > 100 µM (inactive)
CCRF-CEM
  GI50: 13.8 µM (inactive)
786-0
  GI50: > 100 µM (inactive)
HCT-15
  GI50: > 100 µM
UACC-62
  GI50: 95.3 µM (inactive)
EKVX
  GI50: > 100 µM (inactive)
SW-620
  GI50: > 100 µM (inactive)

## O=C(O)C(=Cc1ccc(-c2ccc([N+](=O)[O-])cc2)o1)C(=O)O
IGROV-1
  GI50: > 100 µM (inactive)
K562
  GI50: > 100 µM (inactive)
HL-60
  GI50: > 10 µM (inactive)
KM12
  GI50: > 100 µM (inactive)
BT-549
  GI50: > 100 µM (inactive)
SF-268
  GI50: > 100 µM (inactive)
SK-MEL-28
  GI50: > 100 µM (inactive)
Malme-3M
  GI50: > 100 µM (inactive)
SF-539
  GI50: > 100 µM (inactive)
UO-31
  GI50: > 100 µM (inactive)
CCRF-CEM
  GI50: > 100 µM (inactive)
SR
  GI50: > 100 µM (inactive)
786-0
  GI50: > 100 µM (inactive)
HCT-15
  GI50: > 100 µM
UACC-62
  GI50: > 100 µM (inactive)
MCF7
  GI50: > 100 µM (inactive)
EKVX
  GI50: > 100 µM (inactive)
SW-620
  GI50: > 100 µM (inactive)

## COc1cc2ccc3c4cc(OC)c(OC(C)C)cc4cnc3c2cc1OC
IGROV-1
  GI50: > 100 µM (inactive)
K562
  GI50: > 100 µM (inactive)
HL-60
  GI50: > 100 µM (inactive)
KM12
  GI50: > 100 µM (inactive)
SF-268
  GI50: > 100 µM (inactive)
SK-MEL-28
  GI50: > 100 µM (inactive)
Malme-3M
  GI50: > 100 µM (inactive)
SF-539
  GI50: > 100 µM (inactive)
HOP-92
  GI50: > 100 µM (inactive)
UO-31
  GI50: > 100 µM (inactive)
CCRF-CEM
  GI50: > 100 µM (inactive)
SR
  GI50: > 100 µM (inactive)
786-0
  GI50: > 100 µM (inactive)
HCT-15
  GI50: > 100 µM
UACC-62
  GI50: > 100 µM (inactive)
EKVX
  GI50: > 100 µM (inactive)
SW-620
  GI50: > 100 µM (inactive)

## CCCCCCCCCCCCCCCCC(C(=O)O)C(O)(CC(=O)O)C(=O)O (centres undefined)
IGROV-1
  GI50: 22.1 µM (inactive)
K562
  GI50: 35.2 µM (inactive)
HL-60
  GI50: 14.8 µM (inactive)
KM12
  GI50: 21.2 µM (inactive)
BT-549
  GI50: 20.3 µM (inactive)
SF-268
  GI50: 28.6 µM (inactive)
SK-MEL-28
  GI50: 23.9 µM (inactive)
Malme-3M
  GI50: 58.6 µM (inactive)
SF-539
  GI50: 28.1 µM (inactive)
UO-31
  GI50: 20.3 µM (inactive)
CCRF-CEM
  GI50: 27.1 µM (inactive)
SR
  GI50: 24.7 µM (inactive)
786-0
  GI50: 35.2 µM (inactive)
HCT-15
  GI50: 21.5 µM
UACC-62
  GI50: 18.2 µM (inactive)
MCF7
  GI50: 34.9 µM (inactive)
EKVX
  GI50: 20.2 µM (inactive)
SW-620
  GI50: 20 µM (inactive)

## C[C@H](CC[C@@H](O)C(C)(C)O)[C@H]1CC[C@@]2(C)[C@@H]3CC=C4[C@@H](CC[C@H](O)C4(C)C)[C@]3(C)C(=O)C[C@]12C [BRYODULCOSIGENIN]
IGROV-1
  GI50: > 50 µM (inactive)
K562
  GI50: 19.6 µM (inactive)
HL-60
  GI50: 24.5 µM (inactive)
KM12
  GI50: 15.1 µM (inactive)
BT-549
  GI50: 23.6 µM (inactive)
SK-MEL-28
  GI50: 24.2 µM (inactive)
Malme-3M
  GI50: > 50 µM (inactive)
SF-539
  GI50: > 50 µM (inactive)
UO-31
  GI50: 34 µM (inactive)
CCRF-CEM
  GI50: 16.5 µM (inactive)
SR
  GI50: 23.1 µM (inactive)
786-0
  GI50: 38.3 µM (inactive)
HCT-15
  GI50: 19.2 µM
MCF7
  GI50: 3.05 µM (inactive)
EKVX
  GI50: 21.2 µM (inactive)
SW-620
  GI50: 22.8 µM (inactive)
